Laboratory results published in patent US20230080144A1, “REAL-TIME FLUORESCENCE IMAGING SENSOR FOR MEASURING GLUTATHIONE IN ENDOPLASMIC RETICULUM AND METHOD USING SAME” (CELL2IN, INC., priority 2019, published 2023).

Test system: UC-MSCs
Assay: Cytotoxicity test (EZ-cytox)
Type: cell-based
Settings: for IC50: 24 hours treatment at 5, 10, 20 and 40 μM, absorbance at 450 nm
Protocol: (1) UC-MSCs (4×10^3 cells/well) were cultured in 96-well dishes for 24 hours. (2) The cells were treated with […] of each of ER-FT derivative compounds (Formulas IV to VII) at concentrations of 5, 10, 20 and 40 μM and then incubated at 37° C. for 24 hours. (3) 10 μl of 10× EZ-cytox was added to each well, followed by incubation for 3 hours. (4) The absorbance at 450 nm was measured using a plate reader (reference wavelength: 600 to 650 nm).

Row | SMILES | toxicity (comparison among Formulas IV to VII) (24 hours) | IC50 [µM]
1 | Cc1ccc(S(=O)(=O)NCCNC(=O)C2CCN(C(=O)C(C#N)=Cc3cc4cc5c6c(c4oc3=O)CCCN6CCC5)CC2)cc1 [Formula IV] | lowest toxicity | 43.4
2 | N#CC(=Cc1cc2cc3c4c(c2oc1=O)CCCN4CCC3)C(=O)N1CCC(C(=O)NCCCOCCOCCOCCCNC(=O)c2c(F)c(F)c(F)c(F)c2F)CC1 [Formula VII] | – | 13.3
3 | N#CC(=Cc1cc2cc3c4c(c2oc1=O)CCCN4CCC3)C(=O)N1CCC(C(=O)NCCNC(=O)c2c(F)c(F)c(F)c(F)c2F)CC1 [Formula VI] | – | 33.4
4 | Cc1ccc(S(=O)(=O)NCCCOCCOCCOCCCNC(=O)C2CCN(C(=O)C(C#N)=Cc3cc4cc5c6c(c4oc3=O)CCCN6CCC5)CC2)cc1 [Formula V] | – | 36.4
